Results as given in patent US20240350489A1, “LOU064 FOR TREATING MULTIPLE SCLEROSIS” (NOVARTIS AG, priority 2021, published 2024).
“Also recorded” adds a separate entry of the source.

Experiments:
BTK = target: T1, BTK (Mus musculus, UniProt P35991); test: BTK occupancy in spleen, lymph nodes and brain homogenate, HumanMOG EAE; format: in vivo
T1 construct: from tissue; host or cells: spleen, inguinal lymph nodes, blood and brain homogenate of C57BL/6 EAE mice
Protocol: BTK occupancy in spleen was determined at 1, 5 and 8 hours after b.i.d. oral dosing of LOU064 (FIG. 4).
BTK occupancy was assessed in brain homogenates that had been prepared for compound exposure analysis (FIG. 6). […] Variability in brain BTK occupancy might be due to the fact that the analysis was performed on the remainder of the homogenates prepared for compound level assessment.

[1] = test system: splenocytes and draining lymph node cells; test: Ex vivo MOG-induced recall proliferation, HumanMOG EAE; parameters: species or system mouse; conditions: dosed in vivo
Protocol: Prophylactic LOU064 (b.i.d.) treatment during HumanMOG EAE inhibits (auto)antigen recall proliferation. Isolated splenocytes and draining lymph node cells were incubated in vitro with HumanMOG for 48 hours. Antigen-specific proliferation was determined by [^3H]-thymidine incorporation. […] Group sizes n=5 per treatment.
Ex vivo MOG-induced recall proliferation responses were studied using isolated splenocytes and draining lymph node cells collected on day 8 post-immunization. […] In contrast, plate-bound anti-CD3/CD28 polyclonal stimulation of lymph node cells was unaffected by the in vivo treatment.

RatMOG-induced EAE [2] = test: RatMOG-induced EAE, short eight-day (pre-disease) protocol; parameters: species or system mouse; conditions: dosed in vivo 8 days; LOU064 1, 3 and 10 mg/kg
Protocol: Isolated draining lymph node cells were incubated in vitro with RatMOG for 48 hours. Antigen-specific proliferation was determined by [^3H]-thymidine incorporation. Animals dosed in vivo with BTK inhibitors (LOU064, ibrutinib or Cyclosporin A (CsA) for 8 days. Group sizes n=4-5 per treatment.
To elucidate further whether BTK inhibitor efficacy was directly linked to reduction in B-cell antigen-presenting function compounds were tested in recombinant RatMOG-induced EAE model. This EAE model shares many of the characteristics of recombinant HumanMOG-induced EAE with MOG-specific T-cells infiltrating the CNS and resulting in neurological paralysis. However, RatMOG-induced EAE is B-cell independent and the dendritic cells are the dominant antigen-presenting cells type. Therefore, BTK inhibitors would be predicted to have no significant efficacy in RatMOG-induced EAE unless drug treatment was associated with a broader, non-specific, immune suppression. In addition to LOU064, which was used at 1 mg/kg, 3 mg/kg and 10 mg/kg, the reference compound ibrutinib was tested.
Cyclosporin A (CsA) acted as a positive control for direct T-cell immunosuppression. […] Ex vivo MOG-induced recall proliferation responses were studied using isolated splenocytes collected on day 8 post-immunization. In vivo BTK inhibitor treatment had no effect on recall responses (FIG. 12).

RatMOG-induced EAE [3] = test: RatMOG-induced EAE, b.i.d. dosing until study end; format: in vivo
Protocol: Dosing of LOU064 was initiated 4 hours prior to MOG/CFA immunization and continued twice daily until study end.

NF-L = NF-L concentration in serum, RatMOG EAE; format: in vivo, mouse; conditions: 30 mg/kg b.i.d., vs vehicle
Description: In immunized mice, vehicle or LOU064-treated, the mean NF-L level was markedly higher as compared to naive mice.

[4] = test system: neuroinflammation signature in microglia; test: scRNA-seq analysis of brains and spinal cords of RatMOG EAE mice; format: in vivo, mouse; conditions: LOU064 vs controls
Protocol: 10X Genomics Chromium raw sequencing reads were processed with Cell Ranger [Zheng, G. et al. (2017), Nat Commun 8, 14049]. All subsequent analyses were carried out in R v4.1 and Bioconductor v3.14, loosely following the guidelines in “Orchestrating single-cell analysis with Bioconductor” [Amezquita, R. A. et al (2020), Nat Methods 17, 137-145] and using the framework provided by the scuttle, scater [Davis J McCarthy et al. (2017), Bioinformatics, Vol 33, 8, 1179-1186] and scran [Lun ATL et al. (2016), F1000 Research, 5:2122;
To correct for library size and composition biases, normalization was performed by pooling cells and deconvoluting size factors, followed by a log2 transformation. […]
For each cell type, pseudobulk differential expression analysis was performed using edgeR [Robinson M D et al. (2010), Bioinformatics, 26(1), 139-140], followed by gene set enrichment analysis with fgsea [Gennady Korotkevich et al., doi: https://doi.org/10.1101/060012] and multiple gene set collection from MSigDB [Arthur Liberson et al., Bioinformatics, Vol 27, 12:1739-1740]. A neuroinflammation signature from the Human Phenotype Ontology [Kohler S. et al. (2021) Nucleic Acids Res. 49(D1):D1207-D1217. doi: 10.1093/nar/gkaa1043] was scored with UCell [Andreatta M. et al. (2021), Comput Struct Biotechnol J. 19:3796-3798] and its significance assessed with a one-tailed Mann-Whitney U test.

[5] = 3 mg/kg b.i.d., 1, 5 and 8 hours after dosing
[6] = 30 mg/kg b.i.d., 1, 5 and 8 hours after dosing

T1 sequence (P35991 whole entry): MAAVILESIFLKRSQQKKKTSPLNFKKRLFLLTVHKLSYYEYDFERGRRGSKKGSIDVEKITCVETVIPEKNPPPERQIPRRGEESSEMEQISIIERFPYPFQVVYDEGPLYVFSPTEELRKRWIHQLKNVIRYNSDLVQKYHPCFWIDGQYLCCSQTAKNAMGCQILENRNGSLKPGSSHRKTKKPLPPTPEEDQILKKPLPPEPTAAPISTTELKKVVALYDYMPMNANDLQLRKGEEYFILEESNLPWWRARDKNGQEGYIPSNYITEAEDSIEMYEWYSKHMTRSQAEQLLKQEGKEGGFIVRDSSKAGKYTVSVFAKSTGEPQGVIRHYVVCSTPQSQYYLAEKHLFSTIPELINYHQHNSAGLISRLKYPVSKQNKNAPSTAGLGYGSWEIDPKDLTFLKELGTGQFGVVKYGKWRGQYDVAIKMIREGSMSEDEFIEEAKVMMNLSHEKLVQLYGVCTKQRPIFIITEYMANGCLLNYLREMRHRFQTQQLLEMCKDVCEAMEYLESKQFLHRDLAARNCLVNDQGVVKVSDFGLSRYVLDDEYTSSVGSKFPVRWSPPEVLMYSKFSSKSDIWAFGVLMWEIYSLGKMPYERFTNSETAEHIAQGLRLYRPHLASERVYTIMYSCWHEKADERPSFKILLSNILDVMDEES

Q: What does the source list for `C=CC(=O)N(C)CCOc1c(N)ncnc1-c1cc(F)cc(NC(=O)c2ccc(C3CC3)cc2F)c1C` [LOU064, N-(3-(6-amino-5-(2-(N-methylacrylamido)ethoxy)pyrimidin-4-yl)-5-fluoro-2-methylphenyl)-4-cyclopropyl-2-fluorobenzamide]?
A: BTK occupancy in lymph nodes (BTK; [5]): maximal for both doses and showed a decay after a 3 mg/kg dose; also recorded: complete BTK occupancy; BTK occupancy in spleen (BTK; [5]): maximal for both doses and showed a decay after a 3 mg/kg dose; also recorded: complete BTK occupancy; BTK occupancy in brain homogenate (BTK; 3 mg/kg b.i.d., 1 hour timepoint): only minimal BTK occupancy; BTK occupancy in brain homogenate (BTK; 30 mg/kg b.i.d.): maximal BTK occupancy with a decline over the dosing interval; BTK occupancy in lymph nodes (BTK; [6]): a more sustained occupancy after the 30 mg/kg dose; BTK occupancy in spleen (BTK; [6]): a more sustained occupancy after the 30 mg/kg dose; MOG-specific proliferation ([3H]-thymidine incorporation) ([1]; cells incubated with HumanMOG 48 hours): dose-dependent reduction in MOG-specific proliferation; polyclonal stimulation with anti-CD3/CD28 ([1]; lymph node cells): unchanged; RatMOG (auto)antigen recall proliferation (RatMOG-induced EAE [2]): failed to inhibit (auto)antigen recall proliferation; tolerability (RatMOG-induced EAE [3]; 30 mg/kg b.i.d.): well tolerated in all mice; cumulative disease burden (RatMOG-induced EAE [3]; 30 mg/kg b.i.d., p value=0.013): significantly reduced; disease incidence and time of EAE onset (RatMOG-induced EAE [3]; 30 mg/kg b.i.d., p value=0.018): reduction in the incidence of EAE and a delayed onset; also recorded: significantly reduced disease incidence; clinical symptoms of EAE / EAE scores (RatMOG-induced EAE [3]; 30 mg/kg p.o. b.i.d.): inhibited inflammation-induced clinical symptoms of EAE and cachexia; also recorded: efficacious at reducing the severity of RatMOG-induced EAE; also recorded: improvement in EAE scores; daily body weight changes (cachexia) (RatMOG-induced EAE [3]; 30 mg/kg p.o. b.i.d.): significantly reduced; mean serum NF-L level (NF-L): non-significant trend towards a lower mean NF-L level; also recorded: slightly reduced; neuroinflammation gene signature in microglia [4]: significant downregulation across most conditions; also recorded: significantly downregulated
